Columns and labels:
[1] = tested on: Streptococcus pyogenes strain; details: cited from earlier work
Excerpt: (§1) While extensive studies have been carried out on the structure and chemistry behind their modifications, comparably little is known about the biological functions of linaridins. […] So far, for none of the hitherto described linaridins receptors or mode of action have been prop ...

[2] = tested on: C. glutamicum ATCC 13032/pPB-pHin2^Cg; assay: pHluorin assay for membrane damage; format: cell-based, Corynebacterium glutamicum; details: LMB pH 6.2, 30 min room temperature
Procedure: For detection of membrane damage, a pHluorin assay was conducted as described earlier ([34]). In particular, a 5-mL BHI overnight culture containing kanamycin (50 μg/mL) of the sensor strain C. glutamicum ATCC 13032/pPB-pHin2^Cg was harvested by centrifugation and resuspended to an OD600 of 3 in Listeria minimal buffer [LMB: 100 mM MOPS, 4.82 mM KH2PO4, 11.52 mM Na2HPO4, 1.7 mM MgSO4, 0.6 g/L (NH4)2SO4, 55 mM glucose (pH 6.2)]. Serial 2-fold dilutions of samples were prepared in black 96-well microtiter plates (Sarsted, Nümbrecht, Germany) with a final volume of 100 μL in each well. Subsequently, 100 μL of the sensor strain suspension was added and the plate was incubated at room temperature in the dark for 30 min. Then, pHluorin2 fluorescence was measured at 520 nm with excitation at the distinct maxima at 400 and 480 nm using an infinite M200 plate reader (Tecan, Männedorf, Switzerland).

[3] = tested on: C. glutamicum ATCC 13032; assay: time-kill kinetics; format: cell-based, Corynebacterium glutamicum
Procedure: Fresh overnight cultures of C. glutamicum ATCC 13032 were used to inoculate 5 mL 2× TY in glass tubes with a starting OD600 of 0.5 (i.e., ~10^7 CFU/mL). Samples of interest were added at the indicated concentrations prior to inoculation of the medium. Cultures were then incubated on a rotary shaker at 130 rpm for 24 h at 30°C. Samples were collected at the indicated time points, diluted (10^−1 to 10^−8), and plated on 2× TY agar. CFU per milliliter were determined after 24 to 48 h of incubation of the plates at 30°C by counting the colonies for the respective dilution.

[4] = tested on: Corynebacterium glutamicum ATCC 13032; assay: spot-on-lawn assay; format: cell-based; design: key to Activity, RPC fraction: +: zone of inhibition; (+): diffuse zone of inhibition; −: no zone of inhibition
Procedure: (§2) Antimicrobial activity was determined using a spot-on-lawn assay. Overnight cultures of the respective strains were inoculated with an OD600 of 0.01 into hand-warmed agar medium (16 g/L agar) and poured into sterile petri dishes. After solidification, surfaces of agar plates were air dried at room temperature under a sterile hood. Supernatants and purification fractions were serially diluted and spotted onto agar plates. Plates were incubated under the preferred conditions of the embedded bacteria until growth was visible. Volumetric bacteriocin activity (bacteriocin units [BU] per milliliter) was determined by dividing the last dilution factor resulting in a visible zone of inhibition by the volume spotted.

[5] = tested on: Cutibacterium acnes DSM 16379; assay: spot-on-lawn assay; format: cell-based; design: key to Activity, RPC fraction: +: zone of inhibition; (+): diffuse zone of inhibition; −: no zone of inhibition
Procedure: as §2

[6] = tested on: Listeria innocua LMG2785; assay: spot-on-lawn assay; format: cell-based; design: key to Activity, RPC fraction: +: zone of inhibition; (+): diffuse zone of inhibition; −: no zone of inhibition
Procedure: as §2

[7] = tested on: Bacillus subtilis DSM 402; assay: spot-on-lawn assay; format: cell-based; design: key: +: zone of inhibition; (+): diffuse zone of inhibition; −: no zone of inhibition; details: ten-microliter RPC fraction
Procedure: as §2

[8] = tested on: Corynebacterium ammoniagenes DSM 20306; assay: spot-on-lawn assay; format: cell-based; design: key: +: zone of inhibition; (+): diffuse zone of inhibition; −: no zone of inhibition; details: ten-microliter RPC fraction
Procedure: as §2

[9] = tested on: Corynebacterium amycolatum DSM 6922; assay: spot-on-lawn assay; format: cell-based; design: key: +: zone of inhibition; (+): diffuse zone of inhibition; −: no zone of inhibition; details: ten-microliter RPC fraction
Procedure: as §2

[10] = tested on: Corynebacterium casei DSM 44701; assay: spot-on-lawn assay; format: cell-based; design: key: +: zone of inhibition; (+): diffuse zone of inhibition; −: no zone of inhibition; details: ten-microliter RPC fraction
Procedure: as §2

[11] = tested on: Corynebacterium efficiens DSM 44549; assay: spot-on-lawn assay; format: cell-based; design: key: +: zone of inhibition; (+): diffuse zone of inhibition; −: no zone of inhibition; details: ten-microliter RPC fraction
Procedure: as §2

[12] = tested on: Corynebacterium lipophiloflavum DSM 44291; assay: spot-on-lawn assay; format: cell-based; design: key: +: zone of inhibition; (+): diffuse zone of inhibition; −: no zone of inhibition; details: ten-microliter RPC fraction
Procedure: as §2

[13] = tested on: Corynebacterium striatum DSM 20668; assay: spot-on-lawn assay; format: cell-based; design: key: +: zone of inhibition; (+): diffuse zone of inhibition; −: no zone of inhibition; details: ten-microliter RPC fraction
Procedure: as §2

[14] = tested on: Corynebacterium xerosis DSM 20743; assay: spot-on-lawn assay; format: cell-based; design: key: +: zone of inhibition; (+): diffuse zone of inhibition; −: no zone of inhibition; details: ten-microliter RPC fraction
Procedure: as §2

[15] = tested on: Escherichia coli K-12 MG1655; assay: spot-on-lawn assay; format: cell-based; design: key: +: zone of inhibition; (+): diffuse zone of inhibition; −: no zone of inhibition; details: ten-microliter RPC fraction
Procedure: as §2

[16] = tested on: Lactobacillus plantarum DSM 1055; assay: spot-on-lawn assay; format: cell-based; design: key: +: zone of inhibition; (+): diffuse zone of inhibition; −: no zone of inhibition; details: ten-microliter RPC fraction
Procedure: as §2

[17] = tested on: Lactococcus lactis IL1403; assay: spot-on-lawn assay; format: cell-based; design: key: +: zone of inhibition; (+): diffuse zone of inhibition; −: no zone of inhibition; details: ten-microliter RPC fraction
Procedure: as §2

[18] = tested on: Listeria monocytogenes EGD-e; assay: spot-on-lawn assay; format: cell-based; design: key: +: zone of inhibition; (+): diffuse zone of inhibition; −: no zone of inhibition; details: ten-microliter RPC fraction
Procedure: as §2

[19] = tested on: Micrococcus luteus DSM 20030; assay: spot-on-lawn assay; format: cell-based; design: key: +: zone of inhibition; (+): diffuse zone of inhibition; −: no zone of inhibition; details: ten-microliter RPC fraction
Procedure: as §2

[20] = tested on: Pediococcus acidilactici 347; assay: spot-on-lawn assay; format: cell-based; design: key: +: zone of inhibition; (+): diffuse zone of inhibition; −: no zone of inhibition; details: ten-microliter RPC fraction
Procedure: as §2

[21] = tested on: Pseudomonas fluorescens DSM 50090; assay: spot-on-lawn assay; format: cell-based; design: key: +: zone of inhibition; (+): diffuse zone of inhibition; −: no zone of inhibition; details: ten-microliter RPC fraction
Procedure: as §2

[22] = tested on: Staphylococcus aureus ATCC 29213; assay: spot-on-lawn assay; format: cell-based; design: key: +: zone of inhibition; (+): diffuse zone of inhibition; −: no zone of inhibition; details: ten-microliter RPC fraction
Procedure: as §2

[23] = tested on: Staphylococcus epidermidis DSM 3269; assay: spot-on-lawn assay; format: cell-based; design: key: +: zone of inhibition; (+): diffuse zone of inhibition; −: no zone of inhibition; details: ten-microliter RPC fraction
Procedure: as §2

[24] = tested on: C. glutamicum ATCC 13032; assay: fluorescence microscopy of propidium iodide-stained bacteria; format: cell-based, Corynebacterium glutamicum; details: 4,000-BU/mL RPC fraction, 10 to 30 min incubation
Procedure: A fresh culture of C. glutamicum ATCC 13032 was washed once in phosphate-buffered saline (PBS), and bacteria were resuspended in saline (0.9% [wt/vol] NaCl) at an OD600 of 1. An 87.5-μL concentration of the cell suspension was mixed with nisin, cetyltrimethylammonium bromide (CTAB), H2O, or the RPC fraction containing corynaridin to the indicated concentrations and incubated for 10 to 30 min in the dark. Then, the bacteria were stained using 12.5 μL propidium iodide (25 μg/mL) (Invitrogen, Darmstadt, Germany) and again incubated for 15 min in the dark. Samples were imaged using a Axio Observer Z1 (Zeiss, Oberkochen, Germany) in bright-field and fluorescence mode with a filter set for propidium iodide (excitation at 575 to 625 nm, emission at 660 to 710 nm). Images were acquired with a 63× lens objective and analyzed using the Zen software (version 2.3 SP1; Zeiss).

[25] = tested on: trypsin; format: in vitro ADME
Procedure: (§3) To assess the physicochemical properties of the purified compound, it was tested for resistance to protease and heat treatment (Fig. 3c and d). While a reduction of activity of the RPC fraction to 8,000 BU/mL (i.e., about 4-fold) was observed after incubation with trypsin or proteinase K, heat treatment at 80°C and 100°C for 10 min had no effect.

[26] = molecular target: proteinase K (Parengyodontium album, UniProt P06873); assay: resistance to protease treatment; format: in vitro ADME
proteinase K, sequence (P06873 106-384): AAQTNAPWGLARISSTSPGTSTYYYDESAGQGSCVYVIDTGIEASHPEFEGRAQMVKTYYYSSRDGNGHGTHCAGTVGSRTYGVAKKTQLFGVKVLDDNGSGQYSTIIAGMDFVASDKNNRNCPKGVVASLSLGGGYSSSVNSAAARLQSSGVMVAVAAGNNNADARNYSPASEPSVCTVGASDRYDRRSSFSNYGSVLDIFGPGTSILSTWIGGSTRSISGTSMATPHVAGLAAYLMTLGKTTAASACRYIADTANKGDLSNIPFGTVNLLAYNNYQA
Procedure: as §3

[27] = resistance to heat treatment; format: physicochemical; details: read-out spot-on-lawn, 10-μL sample
Procedure: as §3

[28] = tested on: Micrococcus luteus; details: cited from earlier work
Excerpt: as §1

salinipeptins
growth inhibition [1]: inhibit growth

CCCCCCCCCCCCCCCC[N+](C)(C)C [CTAB, cetyltrimethylammonium bromide]
change of pHluorin2 fluorescence ratio (excitation 400/480 nm) ([2]; positive controls): reduced fluorescence ratios

nisin [reference compound]
reduced number of CFU/mL after 2 h ([3]; 1.25 μg/mL, 2x TY, 30°C, start ~10^7 CFU/mL): > 4 log
change of pHluorin2 fluorescence ratio (excitation 400/480 nm) ([2]; positive controls): reduced fluorescence ratios

O=C(N[C@H](CO)[C@H](O)c1ccc([N+](=O)[O-])cc1)C(Cl)Cl [chloramphenicol, reference compound]
CFU per milliliter throughout the experiment ([3]; 6.5 μg/mL, 2x TY, 30°C, 24 h): stable levels of CFU per milliliter

corynaridin
volumetric bacteriocin activity of RPC preparation ([4]; purified from CLI culture supernatant (ammonium sulfate, CIEX, RPC), resuspended in HPLC-grade H2O, BU/mL = last inhibiting dilution factor / volume spotted): 32,000 BU/mL
volumetric bacteriocin activity of RPC sample for LC-MS ([4]; purified from CLIV minimal medium supernatant (CIEX, RPC), corresponding to 0.5 μg/mL protein): 40,000 BU/mL
Activity, RPC fraction ([4]; spot-on-lawn, ten-microliter RPC fraction): +
Activity, RPC fraction ([5]; ten-microliter RPC fraction): (+)
concentration of RPC fraction at which low levels of inhibition were achieved ([5]; total protein of RPC fraction): > 1,000 μg/mL
Activity, RPC fraction ([6]; ten-microliter RPC fraction): (+)
concentration of RPC fraction at which low levels of inhibition were achieved ([6]; total protein of RPC fraction): > 1,000 μg/mL
Activity, RPC fraction [7]: −
Activity, RPC fraction [8]: +
Activity, RPC fraction [9]: +
Activity, RPC fraction [10]: +
Activity, RPC fraction [11]: +
Activity, RPC fraction [12]: +
Activity, RPC fraction [13]: +
Activity, RPC fraction [14]: +
Activity, RPC fraction [15]: −
Activity, RPC fraction [16]: −
Activity, RPC fraction [17]: +
Activity, RPC fraction [18]: −
Activity, RPC fraction [19]: +
Activity, RPC fraction [20]: −
Activity, RPC fraction [21]: −
Activity, RPC fraction [22]: −
Activity, RPC fraction [23]: −
CFU/mL after 24 h ([3]; RPC fraction at 400 BU/mL (lower concentration)): slightly increased CFU/mL after 24 h
decrease of CFU per milliliter after 2 h ([3]; RPC fraction at 400 BU/mL, 2x TY, 30°C, start ~10^7 CFU/mL): 4 orders of magnitude
CFU/mL after 24 h ([3]; RPC fraction at 1,060 BU/mL (high concentration)): remained at low levels of CFU/mL
decrease of CFU per milliliter after 2 h ([3]; RPC fraction at 1,060 BU/mL, 2x TY, 30°C, start ~10^7 CFU/mL): 4 orders of magnitude
change of pHluorin2 fluorescence ratio (excitation 400/480 nm) ([2]; concentrations up to 10,000 BU/mL, at least three biological replicates): did not result in a change of fluorescence ratios
membrane integrity by propidium iodide staining [24]: no evidence for compromised integrity
reduction of activity after incubation with trypsin [25]: about 4 fold
reduction of activity after incubation with proteinase K ([26]; 32,000 to 8,000 BU/mL): about 4 fold
activity of the RPC fraction after incubation with proteinase K ([26]; starting activity 32,000 BU/mL, read-out spot-on-lawn, 10-μL sample, RPC fraction 606 μg/mL total protein): 8,000 BU/mL
effect of heat treatment on activity ([27]; 80°C for 10 min): no effect
effect of heat treatment on activity ([27]; 100°C for 10 min): no effect

cypemycin
antimicrobial activity [28]: limited to Micrococcus luteus

— article PMC9927463, “Identification and Characterization of Corynaridin, a Novel Linaridin from Corynebacterium lactis” (Microbiology Spectrum, 2022)
